{"source": "patent EP0238198A2", "about": "“Method of modifying the lipid structure function and expression of cell membranes and pharmaceutical compositions for use therein” (Habib, Nagy Adly, priority 1986, dated 1987)", "tested_on": "Primary rat fibroblasts (from alveolar tissue)", "assay": "colony inhibition test (clonogenic assay)", "format": "cell-based", "details": "for Mean no colonies ± SE: 5 days, medium control 55.0±4.6", "procedure": "Cells from rat mammary carcinoma (Sp 22), primary rat fibroblasts (from alveolar tissue) and four rat hepatoma cell lines (D23, D261, D262A and D262B) were studied.\nThe method used for rat cells was as follows: 200 cells were plated per dish in 1 ml 'Eagles' methionine enriched medium (MEM) + 10% newborn calf serum (NBCS) in 30 mm culture dishes and incubated for four hours at 37°C. […] Dilutions containing 20 µg/ml, […], 200 ng/ml and 2 ng/ml were prepared, 1 ml of each dilution was added to four dishes of cells, the final concentration being half the concentration of the material added. […] To control dishes 1 ml of MEM + NBCS was added, or 1 ml of MEM + NBCS + 1% ethanol. The dishes were incubated for 5 days. Medium was then removed, and the cell colonies were rinsed with 0.9% W/V NaCl solution and fixed for 15 minutes with methanol. Cell colonies were stained with 1% aqueous crystal violet and the dishes were allowed to dry.", "key": {"[1]": {"details": "Rattus norvegicus, Fibroblast, 120 h, read-out: % colony formation relative to medium control"}}, "data": [{"smiles": "CCCCCCCCCCCCCCCCCC(=O)O", "note": "[stearic acid, octadecanoic acid]", "values": [{"measurement": "activity at 0.001 µg/mL", "setting": "[1]", "value": 90, "unit": "%"}, {"measurement": "activity at 0.01 µg/mL", "setting": "[1]", "value": 108, "unit": "%"}, {"measurement": "activity at 0.1 µg/mL", "setting": "[1]", "value": 85.8, "unit": "%"}, {"measurement": "activity at 1 µg/mL", "setting": "[1]", "value": 88.2, "unit": "%"}, {"measurement": "activity at 10 µg/mL", "setting": "[1]", "value": 96.5, "unit": "%"}, {"measurement": "activity at 50 µg/mL", "setting": "[1]", "value": 86.4, "unit": "%"}, {"measurement": "Mean no colonies ± SE", "setting": "stearic acid 1ng/ml", "value": "49.5±9.5"}, {"measurement": "Mean no colonies ± SE", "setting": "stearic acid 100 ng/ml", "value": "47.2±9.4"}, {"measurement": "Mean no colonies ± SE", "setting": "stearic acid 1µg/ml", "value": "48.5±9.2"}, {"measurement": "Mean no colonies ± SE", "setting": "stearic acid 10 µg/ml", "value": "52.0±7.7"}, {"measurement": "Mean no colonies ± SE", "setting": "stearic acid 50 µg/ml", "value": "47.5±6.0"}, {"measurement": "inhibition of colony development", "setting": "summary of Table 2", "value": "failed to inhibit"}]}]}
